Test results from PMC6151700, “Novel FXa Inhibitor Identification through Integration of Ligand- and Structure-Based Approaches” (Molecules : A Journal of Synthetic Chemistry and Natural …, 2017).
Like-named read-outs stand apart in the source and are kept apart here.

Tests used:
human FXa = target: T1, human FXa (Homo sapiens, UniProt P00742); assay: Inhibition of FXa in vitro (SensoLyte Rh110 Factor Xa Assay Kit, fluorometric); format: biochemical; conditions: for Emax at 0.01 µM: at 10 nM, read-out: maximal effect of FXa inhibition
T1 construct: purchased Anaspec, Fremont, CA, USA
T1 sequence (P00742 235-488 limits assumed): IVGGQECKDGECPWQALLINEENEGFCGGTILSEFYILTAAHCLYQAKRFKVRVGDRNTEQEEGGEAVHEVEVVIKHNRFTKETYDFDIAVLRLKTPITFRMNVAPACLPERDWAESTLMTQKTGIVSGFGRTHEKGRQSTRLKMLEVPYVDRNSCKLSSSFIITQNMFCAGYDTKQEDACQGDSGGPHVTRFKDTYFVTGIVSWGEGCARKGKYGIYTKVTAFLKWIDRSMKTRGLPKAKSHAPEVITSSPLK
T1 sequence (P00742 41-179 partner limits assumed): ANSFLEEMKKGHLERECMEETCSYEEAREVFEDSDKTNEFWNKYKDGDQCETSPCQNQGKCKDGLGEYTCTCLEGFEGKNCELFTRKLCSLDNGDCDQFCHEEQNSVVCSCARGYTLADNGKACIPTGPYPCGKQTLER
Experimental: The selected compounds were measured in vitro for their factor Xa inhibition using chromogenic substrates. In a first trial the 30 compounds obtained from the developmental therapeutic program at NCI were dissolved in dimethyl sulfoxide (DMSO) at a concentration of 100 mM and then diluted in DMSO to 100 μM. The enzymatic assay was prepared according to manufacturer’s instructions (SensoLyte® Rh110 Factor Xa Assay Kit *Fluorometric*, Anaspec, Fremont, CA, USA). Inhibition control 1 mM was diluted 1:10 with the prepared buffer 1X obtaining the 0.1 mM inhibition control. The reagents containing compound dilutions, buffer and enzyme were mixed, centrifuged, and incubated for 30 min at 37 °C in 96-well microtiter plates. The enzyme reaction was initiated by adding appropriate substrate (FXa, S-2222). The 96-well plate for fluorescence was prepared with 40 μL of enzyme and 1 μL of each compound. To initiate the enzymatic reaction 50 μL of the factor Xa substrate was added to each well and the plate was read with a fluorescence microplate reader FLx800 (Biotek Inc., Winooski, VT, USA) programmed to read continuously for 30 min at 37 °C, at a wavelength of Ex/Em 490 nm/520 nm. […] The data obtained was analyzed with Prism v.7 (GraphPad Inc., La Jolla, CA, USA). In the second trial, the ten filtered and selected compounds) were prepared to span four different concentrations: 0.1–10 nM. The IC50 was calculated from the mean of triplicates from a dilution series of the compound with Prism v.7 (GraphPad Inc., La Jolla, CA, USA).

human plasma [1] = assay: In vitro coagulation assay, activated partial thromboplastin time (aPTT); conditions: 0.1 to 10 nM
Experimental: (§1) PT and aPTT assays were performed on an ACLTop (Instrumentation Laboratory) coagulation instrument. Recombiplastin 2G and aPTT-SP liquid were used according to standard procedures. Increasing concentrations of inhibitor ranging from 0.1 to 10 nM or solvent were added to human plasma and incubated for 10 min at 37 °C. Clotting times were measured and compared with those from the appropriate control plasma.

human plasma [2] = assay: In vitro coagulation assay, prothrombin time (PT); conditions: up to 10 nM
Experimental: as §1

tumor cell line = conditions: assayed 53 times, ChEMBL database ref 46, 47; cited from earlier work
[3] = read-out: FXa Activity Inhibition >50% at 1 μM
[4] = read-out: FXa Activity Inhibition >50% at 10 μM

| SMILES | FXa Activity Inhibition >50% at 1 μM (human FXa) | FXa Activity Inhibition >50% at 10 μM (human FXa) | other results |
| --- | --- | --- | --- |
| CS(=O)(=O)N1C[C@H](C(=O)Nc2ccc(Cl)cc2)[C@@H](C(=O)Nc2ccc(-n3ccccc3=O)cc2F)C1 [Compound 8] |  |  | inhibition at 1 µM (human FXa; 1 µM, Table S1, read-out: FXa Activity Inhibition >50% at 1µM): < 50%; inhibition at 10 µM (human FXa; 10 µM, Table S1, read-out: FXa Activity Inhibition >50% at 10µM): < 50% |
| CCOc1ccc(NC(=O)CC2SC(=Nc3ccc(C)cc3)NC2=O)cc1 (stereo not shown) [Compound 9] | (−) (FXa Activity Inhibition >50% at 1 μM) | (+) (FXa Activity Inhibition >50% at 10 μM) |  |
| O=C(NC[C@H]1CN(c2ccc(N3CCOCC3=O)cc2)C(=O)O1)c1ccc(Cl)s1 [Rivaroxaban, reference compound] |  |  | Emax at 0.01 µM (human FXa): 81%; inhibition at 1 µM (human FXa; [3]): > 50%; inhibition at 10 µM (human FXa; [4]): > 50%; aPTT (human plasma [1]): simultaneously prolonged aPTT and PT in a dose-dependent manner; PT (human plasma [2]): simultaneously prolonged aPTT and PT in a dose-dependent manner |
| Cc1cc(Cl)ccc1NC(=O)CC1SC(=NC(=O)c2ccccc2Cl)NC1=O (stereo not shown) [Compound 22] | (−) (FXa Activity Inhibition >50% at 1 μM) | (+) (FXa Activity Inhibition >50% at 10 μM) |  |
| O=C(C[n+]1ccn(CC(OCc2ccc(Cl)cc2Cl)c2ccc(Cl)cc2Cl)c1)c1ccc(F)cc1.[Cl-] (stereo not shown) [Compound 10] | (−) (FXa Activity Inhibition >50% at 1 μM) | (+) (FXa Activity Inhibition >50% at 10 μM) |  |
| O=C(CC(=O)C1=CNc2ccccc2S1)C(=O)Nc1ccc(Cl)cc1 [Compound 23] | (−) (FXa Activity Inhibition >50% at 1 μM) | (+) (FXa Activity Inhibition >50% at 10 μM) |  |
| O=C(NCc1ccc2ccc3cccnc3c2n1)c1ccc[n+](Cc2ccccc2)c1 [Compound 2] | (−) (FXa Activity Inhibition >50% at 1 μM) | (+) (FXa Activity Inhibition >50% at 10 μM) |  |
| Cc1ccc(NC(=O)CCc2nnc3s/c(=C\c4cccc([N+](=O)[O-])c4)c(=O)n23)cc1 [Compound 3] | (−) (FXa Activity Inhibition >50% at 1 μM) | (+) (FXa Activity Inhibition >50% at 10 μM) |  |
| CC1=C(C(=O)CC(=O)C(=O)Nc2ccccc2)Sc2ccccc2N1 [Compound 5, 4-(3-methyl-4H-1,4-benzothiazin-2-yl)-2,4-dioxo-N-phenylbutanamide] |  |  | Emax at 0.01 µM (human FXa): 58%; inhibition at 1 µM (human FXa; at 1 μM, read-out: FXa inhibition): > 50%; IC50 (human FXa; dose response curves, human FXa): 2.02 nM; inhibition at 1 µM (human FXa; [3]): > 50%; inhibition at 10 µM (human FXa; [4]): > 50%; aPTT (human plasma [1]): prolonged only aPTT; PT (human plasma [2]): without effect on PT; tumor cell line growth inhibition (tumor cell line): inactive in all of them |
| NC(=O)N/N=C(/Cc1nc2ccc(C(=O)c3ccccc3)cc2[nH]c1=O)C(=O)Nc1ccc(Br)cc1 [Compound 24] | (−) (FXa Activity Inhibition >50% at 1 μM) | (+) (FXa Activity Inhibition >50% at 10 μM) |  |
| c1ccc(Cc2[nH]nc(-c3n[nH]c(Cc4ccccc4)c3-c3ccccc3)c2-c2ccccc2)cc1 [Compound 12] | (−) (FXa Activity Inhibition >50% at 1 μM) | (+) (FXa Activity Inhibition >50% at 10 μM) |  |
